The structures appear in SMILES notation.

The target of this assay is XLF (Homo sapiens, UniProt Q9H9Q4). Put plainly: Thermoshift assay of XLF stability in cells. The format is cell-based.
Sequence of XLF (Q9H9Q4 whole entry): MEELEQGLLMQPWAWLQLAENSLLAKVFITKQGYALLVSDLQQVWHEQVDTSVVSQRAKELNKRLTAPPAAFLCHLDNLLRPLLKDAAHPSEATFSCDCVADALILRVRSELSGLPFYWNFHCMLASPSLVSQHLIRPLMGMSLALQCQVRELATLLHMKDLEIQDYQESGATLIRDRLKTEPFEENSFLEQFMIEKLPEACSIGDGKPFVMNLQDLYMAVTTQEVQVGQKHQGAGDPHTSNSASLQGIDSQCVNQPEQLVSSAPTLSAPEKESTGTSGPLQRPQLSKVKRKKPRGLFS
Take `Oc1ccc(/C=C/c2cc(O)cc(O)c2)cc1` [resveratrol]: the “Interaction with XLF (XLF stability)” value was “interacted with XLF”.

As for `CC[C@]1(O)C[C@H]2CN(CCc3c([nH]c4ccccc34)[C@@](C(=O)OC)(c3cc4c(cc3OC)N(C=O)[C@H]3[C@@](O)(C(=O)OC)[C@H](OC(C)=O)[C@]5(CC)C=CCN6CC[C@]43[C@@H]65)C2)C1` [vincristine], the “Interaction with XLF (XLF stability)” value is on record as “interacted with XLF”.

For `COc1cc(O)cc(CCc2ccc(O)c(OC)c2)c1` [Gigantol, gigantol], the “Interaction with XLF (XLF stability)” value is “interacted with XLF”.
